Results published in US11254661B2, “Quinoline derivatives for treating infections with helminths” (Bayer Animal Health GMBH, priority 2017, dated 2022).

What was measured:
[1] = system: Dirofilaria immitis microfilariae; experiment: In Vitro Assay 2: Dirofilaria immitis microfilariae (DIROIM L1) motility; details: 72 h
C. elegans Slo-1a = C. elegans Slo-1a (Caenorhabditis elegans, UniProt Q95V25)
Protocol: In Vitro Assay 1: C. elegans Slo-1a—Action at a Recombinant C. elegans Cell Line
Cells were cultured at 37° C. and 5% CO2 in MEMalpha with Gutamax I (Invitrogen, Nr.: 32571), supplemented with 10% (v/v) heat inactivated fetal bovine serum (Invitrogen, Nr.: 10500), G418 (1 mg/ml, Invitrogen, Nr.: 10131). Cells were detached using Accutase (Sigma, Nr.: A6964).
Membrane Potential Measurements
Laboratory compound testing was performed on 384-well microtiter plates (MTPs, Greiner, Nr.: 781092). 8000 cells/well were plated onto 384-well MTPs and cultured for 20 to 24 hours at 37° C. and 5% CO2. After removal of the cell culture medium, the cells were washed once with tyrode (150 mM NaCl, 0.3 mM KCl, 2 mM CaCl2, 1 mM MgCl2, 0.8 mM NaH2PO4, 5 mM Glucose, 28 mM Hepes, pH 7.4) and then loaded with the voltage sensitive dye of the Membrane Potential Assay Kit diluted in tyrode for 1 h at room temperature.
After starting the measurement of fluorescence using a FLIPR Tetra(Molecular Devices, Exc. 510-545 nm, Emm. 565-625 nm), test compounds were added followed by the addition of KCl tyrode (final assay concentration: 70 mM KCl, 2 mM CaCl2, 1 mM MgCl2, 0.8 mM NaH2PO4, 5 mM Glucose, 28 mM Hepes, pH 7.4, including the voltage sensitive dye). The measurement was completed after 7 minutes.

[2] = system: Dirofilaria immitis third-stage larvae; experiment: In Vitro Assay 3: Dirofilaria immitis (DIROIM L4) larval motility; details: 72 h

C. elegans Slo-1a, sequence (Q95V25 whole entry): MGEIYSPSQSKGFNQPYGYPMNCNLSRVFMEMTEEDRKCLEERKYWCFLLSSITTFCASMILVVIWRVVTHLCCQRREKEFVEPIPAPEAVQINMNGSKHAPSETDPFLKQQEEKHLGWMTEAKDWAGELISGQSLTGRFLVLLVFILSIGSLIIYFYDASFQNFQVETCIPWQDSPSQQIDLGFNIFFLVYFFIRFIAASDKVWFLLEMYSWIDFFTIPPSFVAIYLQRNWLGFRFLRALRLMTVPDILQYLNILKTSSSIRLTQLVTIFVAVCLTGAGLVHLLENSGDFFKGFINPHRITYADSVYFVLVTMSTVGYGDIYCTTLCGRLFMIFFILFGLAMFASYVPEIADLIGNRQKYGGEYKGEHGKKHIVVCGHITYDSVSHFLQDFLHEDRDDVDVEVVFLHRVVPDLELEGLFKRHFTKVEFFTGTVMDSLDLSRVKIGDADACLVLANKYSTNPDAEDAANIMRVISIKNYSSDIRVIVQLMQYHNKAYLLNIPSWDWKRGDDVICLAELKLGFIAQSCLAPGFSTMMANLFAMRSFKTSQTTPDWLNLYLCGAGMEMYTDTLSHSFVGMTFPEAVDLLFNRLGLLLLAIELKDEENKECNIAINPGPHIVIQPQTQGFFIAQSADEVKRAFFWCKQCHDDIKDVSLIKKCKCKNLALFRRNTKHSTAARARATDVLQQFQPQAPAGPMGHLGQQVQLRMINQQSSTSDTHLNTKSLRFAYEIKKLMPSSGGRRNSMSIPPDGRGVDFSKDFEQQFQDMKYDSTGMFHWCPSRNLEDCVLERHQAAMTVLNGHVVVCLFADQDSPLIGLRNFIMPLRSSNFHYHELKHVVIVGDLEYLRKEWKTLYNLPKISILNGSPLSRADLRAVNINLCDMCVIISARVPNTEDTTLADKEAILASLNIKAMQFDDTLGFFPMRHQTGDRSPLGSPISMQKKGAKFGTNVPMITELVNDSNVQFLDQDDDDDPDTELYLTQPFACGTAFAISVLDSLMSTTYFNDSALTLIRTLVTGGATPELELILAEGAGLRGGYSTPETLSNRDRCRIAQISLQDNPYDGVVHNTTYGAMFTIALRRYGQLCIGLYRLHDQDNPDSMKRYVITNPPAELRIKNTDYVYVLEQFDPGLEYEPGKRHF

| SMILES | EC50 [1] [µg/mL] | EC50 (C. elegans Slo-1a) [nM] | EC50 [2] [µg/mL] |
| --- | --- | --- | --- |
| CN(C)c1c(C(=O)N[C@H]2CCOc3ccccc32)cnc2c(C3CCCCCC3)cccc12 [Example 15, (S)—N-(Chroman-4-yl)-8-cycloheptyl-4-(dimethylamino)quinoline-3-carboxamide] | < 0.1 | 3.16 to 31.6 | < 0.1 |
| CN(C)c1c(C(=O)N[C@H]2CCOc3ccccc32)cnc2c(C3=CCC(C)(C)CC3)cccc12 [Example 18, (S)—N-(Chroman-4-yl)-4-(dimethylamino)-8-(4,4-dimethylcyclohex-1-en-1-yl)quinoline-3-carboxamide] | < 10 | 31.6 to 316 | < 1 |
| CC(C)CC(C)c1cccc2c(N3CCOCC3)c(C(=O)N[C@H]3CCOc4ccccc43)cnc12 (stereo partly drawn) [Example 22, N-[(4S)-3,4-dihydro-2H-chromen-4-yl]-8-(4-methylpentan-2-yl)-4-(morpholin-4-yl)quinoline-3-carboxamide] | < 0.1 | 3.16 to 31.6 | < 0.1 |
| C[C@@H]1C[C@H](C)CN(c2cccc3c(N4CCOCC4)c(C(=O)N[C@H]4CCOc5ccccc54)cnc23)C1 [Example 33, N-[(4S)-3,4-dihydro-2H-chromen-4-yl]-8-[(3R,5S)-3,5-dimethylpiperidin-1-yl]-4-(morpholin-4-yl)quinoline-3-carboxamide] | < 0.1 | < 3.16 | < 0.1 |
| C[C@@H]1C[C@H](C)CN(c2cccc3c(N(C)C)c(C(=O)N[C@H]4CCOc5ccccc54)cnc23)C1 [Example 34, N-[(4S)-3,4-dihydro-2H-chromen-4-yl]-4-(dimethylamino)-8-[(3R,5S)-3,5-dimethylpiperidin-1-yl]quinoline-3-carboxamide] | < 1 | < 3.16 | < 0.1 |
| CC(C)c1c(C(=O)N[C@H]2CCOc3ccccc32)cnc2c(N3CCCCC3)c(F)ccc12 [Example 37, N-[(4S)-3,4-dihydro-2H-chromen-4-yl]-7-fluoro-8-(piperidin-1-yl)-4-(propan-2-yl)quinoline-3-carboxamide] | < 0.1 | 3.16 to 31.6 | < 0.1 |
| CC(C)c1c(C(=O)N[C@H]2CCOc3ccccc32)cnc2c(N3C[C@H](C)C[C@H](C)C3)c(F)ccc12 [Example 38, N-[(4S)-3,4-dihydro-2H-chromen-4-yl]-8-[(3R,5S)-3,5-dimethylpiperidin-1-yl]-7-fluoro-4-(propan-2-yl)quinoline-3-carboxamide] | < 0.1 | < 3.16 | < 0.1 |
| O=C(N[C@H]1CCc2ccccc21)c1cnc2c(N3CCC(F)(F)CC3)c(F)ccc2c1N1CCOCC1 [Example 40, 8-(4,4-difluoropiperidin-1-yl)-N-[(1S)-2,3-dihydro-1H-inden-1-yl]-7-fluoro-4-(morpholin-4-yl)quinoline-3-carboxamide] | < 0.1 | 3.16 to 31.6 | < 0.1 |
| CN(C)c1c(C(=O)N[C@H]2CCc3ccccc32)cnc2c(N3CCCC3)c(F)ccc12 [Example 42, N-[(1S)-2,3-dihydro-1H-inden-1-yl]-4-(dimethylamino)-7-fluoro-8-(pyrrolidin-1-yl)quinoline-3-carboxamide] | < 10 | 31.6 to 316 |  |
| O=C(N[C@H]1CCc2ccccc21)c1cnc2c(N3CCCCC3)c(F)ccc2c1N1CCOCC1 [Example 43, N-[(1S)-2,3-dihydro-1H-inden-1-yl]-7-fluoro-4-(morpholin-4-yl)-8-(piperidin-1-yl)quinoline-3-carboxamide] | < 0.1 | 3.16 to 31.6 | < 0.1 |
| CN(C)c1c(C(=O)N[C@H]2CCc3ccccc32)cnc2c(N3CCCCC3)c(F)ccc12 [Example 44, N-[(1S)-2,3-dihydro-1H-inden-1-yl]-4-(dimethylamino)-7-fluoro-8-(piperidin-1-yl)quinoline-3-carboxamide] | < 1 | 3.16 to 31.6 |  |
| O=C(N[C@H]1CCc2ccccc21)c1cnc2c(N3CCOCC3)c(F)ccc2c1N1CCOCC1 [Example 45, N-[(1S)-2,3-dihydro-1H-inden-1-yl]-7-fluoro-4,8-di(morpholin-4-yl)quinoline-3-carboxamide] | < 1 | 31.6 to 316 |  |
| CN(C)c1c(C(=O)N[C@H]2CCc3ccccc32)cnc2c(N3CCS(=O)(=O)CC3)c(F)ccc12 [Example 46, N-[(1S)-2,3-dihydro-1H-inden-1-yl]-4-(dimethylamino)-8-(1,1-dioxidothiomorpholin-4-yl)-7-fluoroquinoline-3-carboxamide] | < 10 | 316 to 5010 |  |
| CN(C)c1c(C(=O)N[C@H]2CCc3ccccc32)cnc2c(N3CCOCC3)c(F)ccc12 [Example 47, N-[(1S)-2,3-dihydro-1H-inden-1-yl]-4-(dimethylamino)-7-fluoro-8-(morpholin-4-yl)quinoline-3-carboxamide] | < 10 | 316 to 5010 |  |
| O=C(N[C@H]1CCc2ccccc21)c1cnc2c(N3CCCC3)c(F)ccc2c1N1CCOCC1 [Example 48, N-[(1S)-2,3-dihydro-1H-inden-1-yl]-7-fluoro-4-(morpholin-4-yl)-8-(pyrrolidin-1-yl)quinoline-3-carboxamide] | < 1 | 3.16 to 31.6 |  |
| CC1CC(C)CN(c2c(F)ccc3c(N4CCOCC4)c(C(=O)N[C@H]4CCc5ccccc54)cnc23)C1 (stereo partly drawn) [Example 49, N-[(1S)-2,3-dihydro-1H-inden-1-yl]-8-(3,5-dimethylpiperidin-1-yl)-7-fluoro-4-(morpholin-4-yl)quinoline-3-carboxamide] | < 0.1 | < 3.16 | < 0.1 |
